Source: US20070111989A1, “Novel diazabicyclononene derivatives and use” (priority 2004, published 2007)

Target: T1, human recombinant renin (Homo sapiens, UniProt P00797)
T1 sequence (P00797 67-406): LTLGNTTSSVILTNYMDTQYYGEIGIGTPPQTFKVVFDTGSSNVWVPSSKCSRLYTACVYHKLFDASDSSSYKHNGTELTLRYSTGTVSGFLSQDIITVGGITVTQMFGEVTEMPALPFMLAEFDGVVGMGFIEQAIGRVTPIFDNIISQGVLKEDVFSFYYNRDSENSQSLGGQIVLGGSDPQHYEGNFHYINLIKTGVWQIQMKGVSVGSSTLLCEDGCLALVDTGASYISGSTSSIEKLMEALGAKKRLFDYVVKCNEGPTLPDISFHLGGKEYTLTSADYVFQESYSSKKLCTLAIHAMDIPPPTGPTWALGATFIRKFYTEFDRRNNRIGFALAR
Experiment: Inhibition of human recombinant renin, enzymatic in vitro assay with Ang I EIA detection
Assay type: biochemical
Conditions: human recombinant renin 0.16 ng/mL, synthetic human angiotensin(1-14) 0.5 μM, 37° C. for 3 h; read-out: IC50 (concentration that inhibited the enzyme activity by 50%)
Experimental: Inhibition of Human Recombinant Renin by the Compounds of the Invention The enzymatic in vitro assay was performed in 384-well polypropylene plates (Nunc). The assay buffer consisted of 10 mM PBS (Gibco BRL) including 1 mM EDTA and 0.1% BSA. The incubates were composed of 50 μL per well of an enzyme mix and 2.5 μL of renin inhibitors in DMSO. The enzyme mix was premixed at 4° C. and consists of the following components: • human recombinant renin (0.16 ng/mL) • synthetic human angiotensin(1-14) (0.5 μM) • hydroxyquinoline sulfate (1 mM) The mixtures were then incubated at 37° C. for 3 h. To determine the enzymatic activity and its inhibition, the accumulated Ang I was detected by an enzyme immunoassay (EIA) in 384-well plates (Nunc). 5 μL of the incubates or standards were transferred to immuno plates which were previously coated with a covalent complex of Ang I and bovine serum albumin (Ang 1-BSA). 75 μL of Ang I-antibodies in essaybuffer above including 0.01% Tween 20 were added and a primary incubation made at 4° C. overnight. The plates were washed 3 times with PBS including 0.01% Tween 20, and then incubated for 2 h at rt with an antirabbit-peroxidase coupled antibody (WA 934, Amersham).

| Compound | IC50 [nM] |
| --- | --- |
| COCCOc1nccc(CN(C(=O)C2=C(c3ccc(CCCOc4c(F)ccc(F)c4Cl)cc3)C[C@@H]3CNC[C@H]2N3)C2CC2)c1C (racemic) [Example 1, (rac.)-(1R*,5S*)-7-{4-[3-(2-Chloro-3,6-difluorophenoxy)propyl]phenyl}-3,9-diazabicyclo[3.3.1]non-6-ene-6-carboxylic acid cyclopropyl-[2-(2-methoxy-ethoxy)-3-methylpyridin-4-ylmethyl]amide] | 1 |
| COCCOc1cccc(CN(C(=O)C2=C(c3ccc(CCCOc4c(F)ccc(F)c4Cl)cc3)CC3CNCC2N3)C2CC2)c1C (racemic) [Example 2, (rac.)-(1R*,5S*)-7-{(4-[3-(2-Chloro-3,6-difluorophenoxy)propyl]phenyl}-3,9-diazabicyclo[3.3.1]non-6-ene-6-carboxylic acid cyclopropyl-[3-(2-methoxy-ethoxy)-2-methylbenzyl]amide] | 1.05 |
